Positions of bridges follow the written chain, without caps; N, C: chain ends. Chains are numbered I, II in the order given.
Tests used:
Assay type in all cases: cell-based
BV2 microglia cells = experiment: LPS-induced nitric oxide production in BV2 microglia cells
U87MG glioblastoma cells = details: U87, ~24 hours
Akt = experiment: EGF-induced Akt activation, Western blot
Excerpt: FIGS. 10A-10B. […] FIG. 10A: Western blot analysis of U87 glioblastoma cells exposed to the indicated concentrations of COG445 peptide in the presence of EGF. The blot is probed with antibodies for the activated EGF receptor (P-EGFR), total EGF receptor, activated PDK1 (P-PDK1), and total PDK1. FIG. 10B: Western blot and densitometry analysis of Akt activation induced by EGF in U87 cells in the presence of increasing concentrations of COG445.
Akt signaling is often dysregulated in cancers thereby promoting cellular survival and proliferation. […] Given the effect of ApoE peptides on other inflammatory pathologies, we investigated the effect of an ApoE peptide dimer on Akt signaling in breast and brain cancer cells. A disulfide dimer of COG112 (SEQ ID NO: 1) was prepared as described in Example 1 (COG445). Adherent breast cancer cells, MDA-MB-231 (MB231), or glioblastoma cells, U87-MG (U87), were serum starved overnight and then exposed to COG445 for 2 hours before stimulating with epidermal growth factor (EGF) for 5 minutes. […] EGFR activation results in the activation of the PI3K/Akt signaling pathway, which is mediated by PDK1 activation.

MDA-MB-231 cells = experiment: MB231 cellular proliferation by cell count
Description: FIG. 14A: Dose response curve of COG445 on proliferation of U87 (open circles) and MDA-MB-231 (filled circles) cells as measured by MTT reduction. FIG. 14B: Dose response curve of COG445 on proliferation of MDA-MB-231 cells as measured by cell count.
Because COG445 inhibited Akt activation and downstream signaling, we examined the effects of COG445 on cellular proliferation. Adherent MB231 and U87 cells were grown for ˜24 hours in the presence of COG445 and cellular proliferation was measured by MTT reduction. […] Furthermore, COG445 inhibited MB231 cellular proliferation as determined by cell count (FIG. 14B). Approximately 6×10^4 cells were plated in growth media (RPMI+10% FBS) for 24-hours with increasing concentrations of COG445. […] However at concentrations ≧1 μM COG445, there appears to be a loss of cells. This is partially explained by decreased proliferation, although it is possible that the rate of cellular degradation was increased in the presence of COG445.

## I: Ac-RQIKIWFQNRRMKWKKCLRVRLASHLRKLRKRLL-NH2 / II: Ac-RQIKIWFQNRRMKWKKCLRVRLASHLRKLRKRLL-NH2 (disulfide I:17-II:17) [COG445, COG112-C-C-COG112]
BV2 microglia cells; 50% suppression of nitric oxide release from BV2 cells following LPS stimulation
  EC50: < 1000 nM
BV2 microglia cells; BV2 cells, LPS 100 ng/mL, read-out: IC50 for NO production/release
  IC50: 20 nM
U87MG glioblastoma cells
  proliferation by MTT reduction: dose-dependent decrease
Akt; 100 nM, both cell lines, significant at 1 μM
  Akt serine 473 phosphorylation: decreased
Akt; MB231 and U87 cells, EGF
  Akt activation: dose-dependent decrease
Akt; MB231 cells
  Akt phosphorylation in the presence of okadaic acid: did not inhibit
MDA-MB-231 cells; 0.1 μM
  cellular proliferation by cell count: slight decrease
MDA-MB-231 cells; 24 hours
  cellular proliferation by cell count: inhibited
MDA-MB-231 cells; ≧1 μM
  cell count: loss of cells
